This note sets out measurements from patent US20220211687A1, “USE OF ARIMOCLOMOL IN THE TREATMENT OF NIEMANN PICK DISEASE” (Orphazyme A/S, priority 2020, published 2022).

Data set [1] has as its system Niemann-Pick disease type C (NPC). As to the kind of experiment: EQ-5D-3L Y proxy health-related quality of life, phase 2/3 trial. It counts as in vivo, human. Here is the method:
EQ-5D-3L Y proxy: The HRQoL of individuals in the trial was measured using the child-friendly version of the EQ-5D-3L Y proxy questionnaire. The questionnaire was completed by the patient's caregiver as a proxy for the individual.

Data set [2] shares this test system. As to the kind of experiment: NPC clinical database (NPC-cdb) score, phase 2/3 trial. It counts as in vivo, human. To be noted: for NPC-cdb score change from baseline to 12 months, Arimoclomol vs placebo: Difference: p=0.3785.
Excerpt: Additional secondary endpoints included: change from baseline in scale for assessment and rating of ataxia (SARA) score at 6 and 12 months; change in the nine-hole peg test (9-HPT) result at 6 and 12 months; change in health-related quality of life (HRQoL) as measured by the 5-dimension 3-level EuroQol questionnaire, youth version (EQ-5D-3L Y proxy) at 6 and 12 months; change in individual 5-domain NPCCSS score at month 12; and NPC clinical database (NPC-cdb) score changes from baseline at trial time points. The NPC-cdb score aims to reflect clinical status; an increase in score indicates a reduction in the patient's abilities.
The nature of data set [3]: Safety in open-label extension (OLE) of phase 2/3 trial.
Excerpt: All OLE patients received arimoclomol; routine clinical care, including miglustat, was maintained.
For data set [4], the system named is Niemann-Pick disease type C (NPC). Nature of the data set: 5-domain NPCCSS score, open-label extension (OLE) of phase 2/3 trial. It counts as in vivo, human.

On to `[O-][n+]1cccc(/C(Cl)=N/OC[C@H](O)CN2CCCCC2)c1` [Arimoclomol, N-[(2R)-2-hydroxy-3-piperidin-1-ylpropoxy]-1-oxidopyridin-1-ium-3-carboximidoyl chloride], for which, in data set [1] (arimoclomol group), the “EQ-5D-3L Y proxy, Improved at 12 months, %” value is “(25.9) %”. For the same compound, the “EQ-5D-3L Y proxy, Worsened at 12 months, %” value in data set [1] (arimoclomol group) is reported as “(44.4) %”. For the same compound, the “EQ-5D-3L Y proxy, Worsened at 12 months, Arimoclomol vs placebo: Difference” value in data set [1] (p=0.1804) is 24.4%. In addition, the “EQ-5D-3L Y proxy, Improved at 12 months, Arimoclomol vs placebo: Difference” value in data set [1] (p=0.4880) is reported as −14.1%. Moreover, the “NPC-cdb score change from baseline to 12 months, LS mean” value in data set [2] (arimoclomol group) is 1.85. The “NPC-cdb score change from baseline to 12 months, Arimoclomol vs placebo: Difference” value in data set [2] is listed as −3.03; in data set [2] (listed as arimoclomol), “numerically in favor of arimoclomol”. Also, the values for the Adverse events incidence in data set [3] (M12-24) and in data set [3] (M24-36) were 87.8% and 85.3%, respectively. The Safety and tolerability result in data set [3] (over 24 months) was “safe and well-tolerated”. The Tolerability result in data set [3] (over 36 months) is on record as “well tolerated”. Moreover, in data set [4] (12-month OLE after 12-month double-blind part), the “Benefit over a two-year period” value is listed as “sustained benefit”. Also, in data set [4] (OLE, 36 months), the “Treatment effect over 36 months” value was “sustained treatment effect”. The “5D-NPCCSS mean (SD) change from baseline at M36” value in data set [4] (arimoclomol-arimoclomol group, 3 years' arimoclomol treatment (DB and OLE)) is 3.5 (5.6); in data set [4] (placebo-arimoclomol group, 2 years' arimoclomol treatment (OLE only)), 0.9 (2.1). The “Progression in OLE compared to placebo-controlled part” value in data set [4] (patients who received arimoclomol for a total of two years, mainly due to patients under 4 years) is listed as “greater progression”. The “5-domain NPCCSS progression” value in data set [4] (patients who switched from placebo to arimoclomol, 12-month open label extension) turned out to be 0.23. In addition, the “Early treatment initiation versus delayed start of treatment” value in data set [4] (predefined subgroups: patients 4 years and older, patients receiving miglustat) is reported as “greater benefit than delayed start of treatment”. Further, in data set [4] (subgroups: aged >4 years, treated with miglustat, without double functional null mutations), the “Benefit of sustained treatment across subgroups at M36” value was “consistent benefit”.
